Results: article PMC8729770, “In Vitro Evaluation of Antimicrobial Peptides from the Black Soldier Fly (Hermetia Illucens) against a Selection of Human Pathogens” (Microbiology Spectrum, 2022)
Values after ≈ are worked out from the molar mass of the structure shown. Like-named read-outs stand apart in the source and are kept apart here. Ends that are not written are not given here. Peptide text beside a SMILES is read from it.

Key:
S. aureus ATCC 6538 = type: cell-based, Staphylococcus aureus; conditions: for MIC S. aureus ATCC 6538: determined visually; for MIC S. aureus ATCC 6538 / IC50: 16 h; for MBC S. aureus ATCC 6538: wells without visual growth plated on MHA, ≥3 log reduction vs growth control; for IC50: MHB, 37°C, resazurin, 50% growth inhibition
Experimental: (§1) To detect antimicrobial activity of the BSF AMPs, the peptide library underwent screening against a panel of microorganisms, consisting of S. aureus ATCC 6538, E. coli ATCC 8739, P. aeruginosa ATCC 9027, C. albicans B59630, and A. fumigatus B42928. Serial dilutions of the peptides were prepared from the DMSO stock solutions in sterile demineralized water in 96-well plates using an automated liquid-handling workstation (Beckman Coulter Biomek 3000) in end volumes of 10 μL. The final in-plate concentration of DMSO was <1%. Peptide concentrations ranged from 64 μM to 0.25 μM for the first evaluation, and from 32 μM to 0.016 μM for the independent repeat. As references, doxycycline (Sigma-Aldrich; S. aureus, E. coli, P. aeruginosa), flucytosine (Sigma-Aldrich; C. albicans), and econazole (Sigma-Aldrich; A. fumigatus) were used. Suspensions of a starting inoculum of 5 × 10^3 CFU/mL (E. coli, S. aureus, C. albicans, A. fumigatus) and 5 × 10^4 CFU/mL (P. aeruginosa) were prepared in MHB (bacterial species) or RPMI medium (fungal species) and 190 μL was added to the 96-well plates. Plates were incubated for 16 h (E. coli, S. aureus, P. aeruginosa), 24 h (C. albicans), or 48 h (A. fumigatus) at 37°C. After incubation, read-out of the antimicrobial activity was performed using a resazurin assay. Then, 20 μL of a 0.01% (wt/vol) resazurin (Sigma-Aldrich) solution was added to each well and plates were incubated for 15 min (S. aureus), 30 min (E. coli), 45 min (P. aeruginosa), 4 h (C. albicans), or 17 h (A. fumigatus) to allow resazurin reduction to take place. Fluorescence was read using a microplate reader (Telix) at λexcitation = 550 nm and λemission = 590. […] MIC values were determined visually. Medium in the wells with no visual growth was plated on MHA to detect the MBC, defined as ≥3 log reduction compared with the growth control.

E. coli ATCC 8739 = type: cell-based, Escherichia coli; conditions: for IC50: MHB, 37°C, resazurin
Experimental: as §1

P. aeruginosa ATCC 9027 = type: cell-based, Pseudomonas aeruginosa; conditions: for IC50: MHB, 37°C, resazurin
Experimental: as §1

[1] = system: MRC5-SV2 cell line of human, embryonic lung fibroblasts; assay: Cytotoxicity screening of the peptide library; type: cell-based; conditions: 72 h, 37°C, resazurin fluorescence
Experimental: To determine early signs of peptide toxicity, the library was tested against the MRC5-SV2 cell line of human, embryonic lung fibroblasts (Sigma-Aldrich). Peptides were serially diluted in 96-well plates as described earlier at concentrations ranging from 64 μM to 0.25 μM for the first screening, and from 32 μM to 0.016 μM for the independent repeat. Tamoxifen (Sigma-Aldrich) was included as a reference compound. After preparation of the test plates, cell suspension (190 μL) of 1.5 × 10^5 cells/mL in complete minimum essential medium (Gibco) was added to the peptides. Plates were incubated for 72 h at 37°C in a 5% CO2 incubator (Binder). Afterwards, 50 μL of a 0.01% (wt/vol) resazurin (Sigma-Aldrich) solution was added to the wells to detect cell viability.

C. albicans B59630 = type: cell-based, Candida albicans; conditions: RPMI, 24 h, 37°C, resazurin
Experimental: as §1

A. fumigatus B42928 = type: cell-based, Aspergillus fumigatus; conditions: RPMI, 48 h, 37°C, resazurin
Experimental: as §1

[2] = repeat 1, 64-0.25 μM, determined visually, 16 h
[3] = repeat 2, 32-0.016 μM, determined visually, 16 h
[4] = repeat 2, plated on MHA, ≥3 log reduction vs growth control
[5] = repeat 1, plated on MHA, ≥3 log reduction vs growth control

Molecule | MIC S. aureus ATCC 6538 (S. aureus ATCC 6538; repeat 1, 64-0.25 μM) [µM] | MIC S. aureus ATCC 6538 (S. aureus ATCC 6538; repeat 2, 32-0.016 μM) [µM] | MIC E. coli ATCC 8739 (E. coli ATCC 8739; [2]) [µM] | MIC E. coli ATCC 8739 (E. coli ATCC 8739; [3]) [µM] | MIC P. aeruginosa ATCC 9027 (P. aeruginosa ATCC 9027; [2]) [µM] | MIC P. aeruginosa ATCC 9027 (P. aeruginosa ATCC 9027; [3]) [µM] | MBC E. coli ATCC 8739 (E. coli ATCC 8739; [4]) [µM] | MIC P. aeruginosa ATCC 9027 (P. aeruginosa ATCC 9027; ATCC 9027, 16 h) [µM] | MBC P. aeruginosa ATCC 9027 (P. aeruginosa ATCC 9027; [5]) | MBC P. aeruginosa ATCC 9027 (P. aeruginosa ATCC 9027; [4]) [µM] | other results
CC[C@H](C)[C@H](NC(=O)[C@H](CS)NC(=O)[C@H](Cc1c[nH]cn1)NC(=O)[C@H](C)NC(=O)[C@H](C)NC(=O)[C@H](CS)NC(=O)[C@H](C)NC(=O)[C@H](C)NC(=O)[C@H](Cc1c[nH]cn1)NC(=O)CNC(=O)[C@@H](NC(=O)[C@H](CCCCN)NC(=O)[C@H](Cc1ccccc1)NC(=O)[C@@H]1CCCN1C(=O)[C@H](CO)NC(=O)[C@H](CC(C)C)NC(=O)[C@H](CC(C)C)NC(=O)[C@H](CC(=O)O)NC(=O)[C@H](CS)NC(=O)[C@@H](NC(=O)[C@H](C)N)[C@@H](C)O)C(C)C)C(=O)N[C@@H](C)C(=O)N[C@@H](CCCNC(=N)N)C(=O)NCC(=O)N[C@@H](CCCCN)C(=O)N[C@@H](CCCNC(=N)N)C(=O)NCC(=O)NCC(=O)N[C@@H](Cc1c[nH]c2ccccc12)C(=O)N[C@@H](CS)C(=O)N[C@@H](CC(=O)O)C(=O)N[C@@H](CCCCN)C(=O)N[C@@H](CCCNC(=N)N)C(=O)N[C@@H](C)C(=O)N[C@H](C(=O)N[C@@H](CS)C(=O)N[C@@H](CC(N)=O)C(=O)N[C@@H](CS)C(=O)N[C@@H](CCCNC(=N)N)C(=O)N[C@@H](CCCCN)C(=O)O)C(C)C [Hill-Def2a] (H-ATCDLLSPFKVGHAACAAHCIARGKRGGWCDKRAVCNCRK-OH; N-terminus and C-terminus assumed) | 0.25 (≈ 1.07 µg/mL) | 2.00 (≈ 8.55 µg/mL) | > 64.00 | > 32.00 | > 64.00 | > 32.00 |  |  |  |  | MBC S. aureus ATCC 6538 (S. aureus ATCC 6538; repeat 1): static; MBC S. aureus ATCC 6538 (S. aureus ATCC 6538; repeat 2): static
CC[C@H](C)[C@H](NC(=O)[C@H](CS)NC(=O)[C@H](Cc1c[nH]cn1)NC(=O)[C@H](CC(C)C)NC(=O)[C@H](C)NC(=O)[C@H](CS)NC(=O)[C@H](C)NC(=O)[C@H](C)NC(=O)[C@H](Cc1c[nH]cn1)NC(=O)CNC(=O)[C@@H](NC(=O)[C@H](CCCCN)NC(=O)[C@H](Cc1ccccc1)NC(=O)[C@@H]1CCCN1C(=O)[C@H](CO)NC(=O)[C@H](CC(C)C)NC(=O)[C@H](CC(C)C)NC(=O)[C@H](CC(=O)O)NC(=O)[C@H](CS)NC(=O)[C@@H](NC(=O)[C@H](C)N)[C@@H](C)O)C(C)C)C(=O)N[C@@H](C)C(=O)N[C@@H](CC(C)C)C(=O)NCC(=O)N[C@@H](CCCNC(=N)N)C(=O)N[C@@H](CCCNC(=N)N)C(=O)NCC(=O)NCC(=O)N[C@@H](Cc1c[nH]c2ccccc12)C(=O)N[C@@H](CS)C(=O)N[C@@H](CC(=O)O)C(=O)NCC(=O)N[C@@H](CCCNC(=N)N)C(=O)N[C@@H](C)C(=O)N[C@H](C(=O)N[C@@H](CS)C(=O)N[C@@H](CC(N)=O)C(=O)N[C@@H](CS)C(=O)N[C@@H](CCCNC(=N)N)C(=O)N[C@@H](CCCNC(=N)N)C(=O)O)C(C)C [Hill-Def4] (H-ATCDLLSPFKVGHAACALHCIALGRRGGWCDGRAVCNCRR-OH; N-terminus and C-terminus assumed) | 1.00 (≈ 4.26 µg/mL) | 8.00 (≈ 34.1 µg/mL) | > 64.00 | > 32.00 | > 64.00 | > 32.00 |  |  |  |  | bactericidal or bacteriostatic mechanism (S. aureus ATCC 6538; MBC determination): bacteriostatic; MBC S. aureus ATCC 6538 (S. aureus ATCC 6538; repeat 1): static; MBC S. aureus ATCC 6538 (S. aureus ATCC 6538; repeat 2): static
AMCDLLSGLNMGRSVCAMRCILKGHRGGWCDDQGVCNCRV [Hill-Def5, Defensin without disulfide bridges] | > 64.00 | > 32.00 | > 64.00 | > 32.00 | > 64.00 | > 32.00 |  |  |  |  | IC50 ([1]; repeat 1, first screening 64-0.25 μM): > 64 µM; IC50 ([1]; repeat 2, independent repeat 32-0.016 μM): > 32 µM; IC50 (S. aureus ATCC 6538; repeat 1, 64-0.25 μM): > 64 µM; IC50 (S. aureus ATCC 6538; repeat 2, 32-0.016 μM): > 32 µM; IC50 (E. coli ATCC 8739; repeat 1, 64-0.25 μM, 16 h): > 64 µM; IC50 (E. coli ATCC 8739; repeat 2, 32-0.016 μM, 16 h): > 32 µM; IC50 (P. aeruginosa ATCC 9027; repeat 1, 64-0.25 μM, 16 h): > 64 µM; IC50 (P. aeruginosa ATCC 9027; repeat 2, 32-0.016 μM, 16 h): > 32 µM; IC50 (C. albicans B59630; repeat 1, 64-0.25 μM): > 64 µM; IC50 (C. albicans B59630; repeat 2, 32-0.016 μM): > 32 µM; IC50 (A. fumigatus B42928; repeat 1, 64-0.25 μM): > 64 µM; IC50 (A. fumigatus B42928; repeat 2, 32-0.016 μM): > 32 µM
GWWKRVFKPVEKFGQRVRDAGIQGIEIAQQGANVLATARGGPPQQ-NH2 [Hill-Cec8] | > 64.00 | > 32.00 |  | 2.00 |  | 8.00 | 8.00 | 4.00 | 64.00 µM | 8.00 | MBC E. coli ATCC 8739 (E. coli ATCC 8739; ATCC 8739, 16 h): 1.00 µM; MIC E. coli ATCC 8739 (E. coli ATCC 8739; ATCC 8739, 16 h): 1.00 µM
GWWKRVFKPVEKFGQRVRDAGVQGIAIAQQGANVLATARGGPPQQ-NH2 [Hill-Cec2] | > 64.00 | > 32.00 | 1.00 | 2.00 | 4.00 | 2.00 | 2.00 |  | 16.00 µM | 2.00 | MBC E. coli ATCC 8739 (E. coli ATCC 8739; [5]): 1.00 µM
GWWKRVFKPVEKLGQRVRDAGIQGLEIAQQGANVLATARGGPPQQ-NH2 [Hill-Cec3] | > 64.00 | > 32.00 | 1.00 | 0.50 | 4.00 | 2.00 | 32.00 |  | 16.00 µM | 2.00 | MBC E. coli ATCC 8739 (E. coli ATCC 8739; [5]): 1.00 µM
GWWKRVFKPVEKLGQRVRDAGIQGLEIAQQGANVLATVRGGPPQQ-NH2 [Hill-Cec9] | > 64.00 | > 32.00 |  |  |  | 2.00 |  | 1.00 | static | 2.00 | 
GWWKRVFKPVERLGQRVRDAGIQGLQIAQQGANVLATVRGGPPQQ-NH2 [Hill-Cec4] | > 64.00 | > 32.00 | 1.00 | 2.00 | 1.00 | 2.00 | 2.00 |  | 16.00 µM | 2.00 | MBC E. coli ATCC 8739 (E. coli ATCC 8739; [5]): static
KSWWKKVFKPVERAGQRIRDASIKGLAVAQQGANVLSTIRGGPPVVAPPPQV-NH2 [Hill-Cec13] | > 64.00 | > 32.00 |  |  |  | 2.00 |  | 1.00 | 64.00 µM | 2.00 | 
RSLWKKLFKPVERAGQRIRDATIKGIVIAQQGANVLATIRGGPAIPPGQ-NH2 [Hill-Cec12] | > 64.00 | > 32.00 | 0.25 | 2.00 |  | 2.00 | 8.00 | 1.00 | static | 8.00 | MBC E. coli ATCC 8739 (E. coli ATCC 8739; ATCC 8739, 16 h): 1.00 µM
SWFKKVFKPVEKVGQRVRDAGIQGVAIAQQGANVLATARGGPPH-NH2 [Hill-Cec5] |  |  |  |  |  |  |  |  |  |  | MBC E. coli ATCC 8739 (E. coli ATCC 8739; ATCC 8739, 16 h): 0.50 µM; MBC P. aeruginosa ATCC 9027 (P. aeruginosa ATCC 9027; ATCC 9027, 16 h): 32.00 µM
